Measurements from patent publication US12344610B2, “APOL1 inhibitors and methods of use” (Maze Therapeutics, Inc., priority 2022, dated 2025).

Key:
Assay type in all cases: cell-based
[1] = tested on: HEK293 clonal cell line overexpressing APOL1 G1; test: APOL1 G1 HEK293 cell rescue assay (Example B3); conditions: Homo sapiens, HEK293, HEK293 clonal line overexpressing APOL1 G1; geometric mean of at least 2 runs; † = single run; ¥ = concentration at 50% rescue estimated (no sigmoidal curve)
Summary of the method: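 Rescue of cell death caused by APOL1 G1 overexpression was measured in a clonal HEK293 line. Compounds were tested in duplicate on one plate, and EC50s were geometric means across at least two runs on different days. Some values are estimated 50%-rescue concentrations where curve fitting failed.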

APOL1 G2 = molecular target: T1, APOL1 G2 (Homo sapiens, UniProt O14791, DEL388-389); test: APOL1-mediated calcium transport (calcium influx) assay, HEK T-REx/GCaMP6f/APOL1 G2 K6.3 cells, FLIPR TETRA; conditions: prevention of calcium influx; geometric mean of at least 2 assay runs; † = average of a technical replicate from a single assay run
T1 construct: expressed in transfected cells; host or cells: HEK293 T-REx clonal line stably expressing GCaMP6f (HEK T-REx/GCaMP6f/APOL1 G2 K6.3), doxycycline induced
T1 sequence (O14791 with tags, fused parts or gaps DEL388-389): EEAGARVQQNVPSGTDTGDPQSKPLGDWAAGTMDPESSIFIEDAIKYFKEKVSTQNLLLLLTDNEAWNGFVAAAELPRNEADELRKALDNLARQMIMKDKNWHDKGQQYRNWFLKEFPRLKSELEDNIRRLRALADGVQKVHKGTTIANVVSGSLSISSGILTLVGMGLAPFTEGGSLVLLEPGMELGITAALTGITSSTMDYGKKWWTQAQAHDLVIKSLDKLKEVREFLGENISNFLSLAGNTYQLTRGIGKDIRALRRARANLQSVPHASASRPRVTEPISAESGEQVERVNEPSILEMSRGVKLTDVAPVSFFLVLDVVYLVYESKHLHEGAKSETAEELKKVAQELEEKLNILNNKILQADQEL
Summary of the method: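 A HEK293 T-REx clone stably expressing GCaMP6f had APOL1 G2 induced with doxycycline (20 ng/mL solution added) for 6 h. Cells were then washed into Ca2+-free Tyrode's buffer (pH 7.4) and preincubated with compounds (duplicate 8-point) for 10 min at room temperature. Ca2+ injection to 5 mM final produced FLIPR GCaMP fluorescence, giving AC50 for influx inhibition (geometric mean, ≥2 runs).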

[2] = tested on: HEK293 cells overexpressing APOL1 G2; test: APOL1 G2 HEK293 cell rescue assay (reversal of cell death caused by overexpression of APOL1); conditions: Homo sapiens, HEK293, HEK293 overexpressing APOL1 G2; geometric mean of at least 2 assay runs; † = single assay run
Summary of the method: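 Each compound tested in duplicate wells on one plate per run, with values usually the geometric mean across at least two runs on different days, occasionally from one run only. Read-out: concentration giving half-maximal rescue of APOL1 G2 overexpression-induced death of HEK293 cells.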

Compound | EC50 [1] [nM] | AC50 (APOL1 G2) [nM] | EC50 [2] [nM]
CC(=O)N1CCCc2cc(OCCN3CCC4(CC3)C(=O)Nc3ccc(Cl)cc34)cnc21 [Compound 80, 1′-{2-[(8-acetyl-5,6,7,8-tetrahydro-1,8-naphthyridin-3-yl)oxy]ethyl}-5-chloro-1,2-dihydrospiro[indole-3,4′-piperidin]-2-one] | 178 | 375 | 65.7
CC(=O)N1CCCc2cc(OCCN3CCC4(CC3)C(=O)Nc3ccc(C#N)cc34)cnc21 [Compound 81, 1′-{2-[(8-acetyl-5,6,7,8-tetrahydro-1,8-naphthyridin-3-yl)oxy]ethyl}-2-oxo-1,2-dihydrospiro[indole-3,4′-piperidine]-5-carbonitrile] | 948 | 549 | 280
CN1C(=O)C(C)(C)c2cc(OCCN3CCC4(CC3)C(=O)Nc3ccc(C#N)cc34)ccc21 [Compound 83, 2-oxo-1′-{2-[(1,3,3-trimethyl-2-oxo-2,3-dihydro-1H-indol-5-yl)oxy]ethyl}-1,2-dihydrospiro[indole-3,4′-piperidine]-5-carbonitrile] | 788 | 718 | 247
O=C1NCC2c3ccc(OCCN4CCC5(CC4)C(=O)Nc4ccc(Cl)cc45)cc3CCN12 (stereo not drawn) [Compound 115, 5-chloro-1′-[2-({3-oxo-1H,2H,3H,5H,6H,10bH-imidazo[4,3-a]isoquinolin-8-yl}oxy)ethyl]-1,2-dihydrospiro[indole-3,4′-piperidin]-2-one] | 199 | 472 | 94.9
N#Cc1ccc2c(c1)C1(CCN(CCOc3ccc4c(c3)CCN3C(=O)NCC43)CC1)C(=O)N2 (stereo not drawn) [Compound 118, 2-oxo-1′-[2-({3-oxo-1H,2H,3H,5H,6H,10bH-imidazo[4,3-a]isoquinolin-8-yl}oxy)ethyl]-1,2-dihydrospiro[indole-3,4′-piperidine]-5-carbonitrile] | ~2100 | 1040 | 431
O=C1CCC2c3ccc(OCCN4CCC5(CC4)C(=O)Nc4ccc(Cl)cc45)cc3CCN12 (stereo not drawn) [Compound 121, 5-chloro-1′-[2-({3-oxo-1H,2H,3H,5H,6H,10bH-pyrrolo[2,1-a]isoquinolin-8-yl}oxy)ethyl]-1,2-dihydrospiro[indole-3,4′-piperidin]-2-one] | 249 | 508 | 81.2
N#Cc1ccc2c(c1)C1(CCN(CCOc3ccc4c(c3)CCN3C(=O)CCC43)CC1)C(=O)N2 (stereo not drawn) [Compound 124, 2-oxo-1′-[2-({3-oxo-1H,2H,3H,5H,6H,10bH-pyrrolo[2,1-a]isoquinolin-8-yl}oxy)ethyl]-1,2-dihydrospiro[indole-3,4′-piperidine]-5-carbonitrile] | 920 | 727 | 297
Cc1cc(OCCN2CCC3(CC2)C(=O)Nc2ccc(C#N)cc23)cc(C)c1S(C)(=O)=O [Compound 130, 1′-[2-(4-methanesulfonyl-3,5-dimethylphenoxy)ethyl]-2-oxo-1,2-dihydrospiro[indole-3,4′-piperidine]-5-carbonitrile] | 253 | 525 | 92.3
CC(c1ccc(OCCN2CCC3(CC2)C(=O)Nc2ccc(C#N)cc23)cc1)S(C)(=O)=O (stereo not drawn) [Compound 133, 1′-{2-[4-(1-methanesulfonylethyl)phenoxy]ethyl}-2-oxo-1,2-dihydrospiro[indole-3,4′-piperidine]-5-carbonitrile] | 885 | 671 | 203
CC(c1c(F)cc(OCCN2CCC3(CC2)C(=O)Nc2ccc(Cl)cc23)cc1F)S(C)(=O)=O (stereo not drawn) [Compound 141, 5-chloro-1′-{2-[3,5-difluoro-4-(1-methanesulfonylethyl)phenoxy]ethyl}-1,2-dihydrospiro[indole-3,4′-piperidin]-2-one] | 204 | 954 | 48
CS(=O)(=O)c1ccc(OCCN2CCC3(CC2)C(=O)N(CCO)c2ccc(C#N)cc23)cc1C(F)(F)F [Compound 159, 1-(2-hydroxyethyl)-1′-{2-[4-methanesulfonyl-3-(trifluoromethyl)phenoxy]ethyl}-2-oxo-1,2-dihydrospiro[indole-3,4′-piperidine]-5-carbonitrile] | 588 | 1010 | 168
N#Cc1ccc2c(c1)C1(CCN(CCOc3ccc4c(c3)CNC4=O)CC1)C(=O)N2 [Compound 170, 2-oxo-1′-{2-[(1-oxo-2,3-dihydro-1H-isoindol-5-yl)oxy]ethyl}-1,2-dihydrospiro[indole-3,4′-piperidine]-5-carbonitrile] | ~2300 | 1310 | 803
O=C1NCc2cc(OCCN3CCC4(CC3)C(=O)Nc3ccc(Cl)cc34)ccc21 [Compound 171, 5-chloro-1′-{2-[(1-oxo-2,3-dihydro-1H-isoindol-5-yl)oxy]ethyl}-1,2-dihydrospiro[indole-3,4′-piperidin]-2-one] | 228 | 598 | 100
CC1(Oc2ncc(OCCN3CCC4(CC3)C(=O)Nc3ccc(C#N)cc34)cn2)COC1 [Compound 173, 1′-[2-({2-[(3-methyloxetan-3-yl)oxy]pyrimidin-5-yl}oxy)ethyl]-2-oxo-1,2-dihydrospiro[indole-3,4′-piperidine]-5-carbonitrile] | 1160 | 908 | 289
O=C1Nc2ccc(Cl)cc2C12CCN(CCOc1ccc(C3CCCS3(=O)=O)cc1)CC2 (stereo not drawn) [Compound 175, 2-[4-(2-{5-chloro-2-oxo-1,2-dihydrospiro[indole-3,4′-piperidin]-1′-yl}ethoxy)phenyl]-1λ^6-thiolane-1,1-dione] | 153 | 381 | 63.1
N#Cc1ccc2c(c1)C1(CCN(CCOc3ccc(C4CCCS4(=O)=O)cc3)CC1)C(=O)N2 (stereo not drawn) [Compound 178, 1′-{2-[4-(1,1-dioxo-1λ^6-thiolan-2-yl)phenoxy]ethyl}-2-oxo-1,2-dihydrospiro[indole-3,4′-piperidine]-5-carbonitrile] | 1190 | 550 | 256
O=C1OC2(COC2)c2ccc(OCCN3CCC4(CC3)C(=O)Nc3ccc(Cl)cc34)cc21 [Compound 179, 5-chloro-1′-(2-{3-oxo-3H-spiro[2-benzofuran-1,3′-oxetan]-5-yloxy}ethyl)-1,2-dihydrospiro[indole-3,4′-piperidin]-2-one] | 484 | 655 | 164
CS(=O)(=O)C1(c2ccc(OCCN3CCC4(CC3)C(=O)Nc3ccc(C#N)cc34)cc2)CC2(COC2)C1 [Compound 183, 1′-[2-(4-{6-methanesulfonyl-2-oxaspiro[3.3]heptan-6-yl}phenoxy)ethyl]-2-oxo-1,2-dihydrospiro[indole-3,4′-piperidine]-5-carbonitrile] | ~5800 | 1520 | 702
CS(=O)(=O)Nc1ccc(OCCN2CCC3(CC2)C(=O)N(CCO)c2ccc(Cl)cc23)cc1C(F)(F)F [Compound 186, N-(4-{2-[5-chloro-1-(2-hydroxyethyl)-2-oxo-1,2-dihydrospiro[indole-3,4′-piperidin]-1′-yl]ethoxy}-2-(trifluoromethyl)phenyl)methanesulfonamide] | 98.8 | 524 | 35.9
CS(=O)(=O)C1(c2ccc(OCCN3CCC4(CC3)C(=O)Nc3ccc(C#N)cc34)cc2)CCOCC1 [Compound 187, 1′-{2-[4-(4-methanesulfonyloxan-4-yl)phenoxy]ethyl}-2-oxo-1,2-dihydrospiro[indole-3,4′-piperidine]-5-carbonitrile] | 1260 | 1220 | 268
CC(=O)N1CCc2cc(OCCN3CCC4(CC3)C(=O)Nc3ccc(Cl)cc34)ccc2C1 [Compound 194, 1′-{2-[(2-acetyl-1,2,3,4-tetrahydroisoquinolin-6-yl)oxy]ethyl}-5-chloro-1,2-dihydrospiro[indole-3,4′-piperidin]-2-one] | 414 | 600 | 246
CC(COc1ccc2c(c1)CCC(=O)N2C)N1CCC2(CC1)C(=O)Nc1ccc(Cl)cc12 (stereo not drawn) [Compound 199, 5-chloro-1′-{1-[(1-methyl-2-oxo-1,2,3,4-tetrahydroquinolin-6-yl)oxy]propan-2-yl}-1,2-dihydrospiro[indole-3,4′-piperidin]-2-one] | 312 | 1130 | 148
